Assay results from patent US12617752B2, “Rapidly metabolized lipid compound” (Beijing Jitai Life Sciences Ltd, priority 2023, dated 2026).

Key:
[1] = system: C57BL/6 mice; assay: In vivo delivery of luciferase mRNA lipid nanoparticles in mice (bioluminescence imaging); details: intravenous, single dose 0.5 mg/kg luciferase mRNA
Procedure: The delivery effect and safety of nanoparticles encapsulated with luciferase mRNA (Trilink, L-7202) in mice were evaluated. The test mice were SPF-grade C57BL/6 mice, female, 6-8 weeks old, weighing 18-22 g, and were purchased from SPF (Beijing) Biotechnology Co., Ltd. All animals were acclimatized for more than 7 days prior to the experiment, and had free access to food and water during the experiment. The conditions include alternating light and dark for 12/12 h, the indoor temperature of 20-26° C. and the humidity of 40-70%. The mice were randomly grouped. The lipid nanoparticles encapsulated with luciferase mRNA prepared above were injected into mice by intravenous administration at a single dose of 0.5 mg/kg mRNA, and the mice were subjected to in vivo bioluminescence assay using a Small Animal In Vivo Imaging System (IVIS LUMINA III, purchased from PerkinElmer) at 6 h after administration. The assay was performed as follows: D-luciferin solution was prepared in saline at a concentration of 15 mg/mL, and each mouse was given the substrate by intraperitoneal injection. At ten minutes after administration of the substrate, the mice were anesthetized in an anesthesia chamber with isoflurane at a concentration of 2.5%. The anesthetized mice were placed in IVIS for fluorescence imaging, and data acquisition and analysis were performed on the concentrated distribution area of fluorescence.
The in vivo delivery efficiency of lipid nanoparticle carriers was expressed as the mean values of fluorescence intensity and total photon count in different animals within the same subject group, as shown in Table 5-Table 11. Higher values of fluorescence intensity and total photon count indicate higher in vivo delivery efficiency of this mRNA fragment by lipid nanoparticles. The lipid nanoparticles containing the cationic lipids of the present disclosure have good in vivo delivery efficiency.

[2] = Encapsulation efficiency of lipid nanoparticles (Quant-it RiboGreen RNA Assay); assay type: physicochemical; details: lipid nanoparticles with luciferase mRNA
Procedure: (§1) Lipid nanoparticles were prepared by (1) dissolving and mixing ionizable lipid compounds, cholesterol, phospholipids and polyethylene glycolated lipids in ethanol at (molar percentages) 50%, 38.5%, 10% and 1.5%, respectively; (2) dissolving the mRNA active ingredient in 25 mM sodium acetate solution (pH=4.5); (3) using an automated high-throughput microfluidic system to mix the organic phase containing the lipid mixture and the aqueous phase containing the mRNA component in the flow ratio range of 1:1 to 1:4 at a mixing speed of 10 mL/min to 18 mL/min; (4) the prepared lipid nanoparticles (N/P ratio=6) were diluted with phosphate buffer solution and the nanoparticle solutions were ultrafiltered to the original preparation volume using ultrafiltration tubes (purchased from Millipore) with a cut-off molecular weight of 30 kDa; and (5) the obtained nanoparticles were filtered through a sterile 0.2 μm filter membrane and then stored in a sealed glass vial at low temperature.
(§2) The particle size and particle size dispersity index (PDI) of the prepared lipid nanoparticles were measured using a Zetasizer Pro (purchased from Malvern Instruments Ltd) and a DynaPro NanoStar (purchased from Wyatt) dynamic light scattering instrument. The degree of RNA encapsulation by lipid nanoparticles was characterized by the Encapsulation Efficiency %, which reflects the degree of binding of lipid nanoparticles to RNA fragments. This parameter was measured by the method of Quant-it™ RiboGreen RNA Assay (purchased from Invitrogen). Lipid nanoparticle samples were diluted in TE buffer (10 mM Tris-HCl, 1 mM EDTA, pH=7.5). A portion of the sample solution was removed, to which 0.5% Triton (Triton X-100) was added, and then allowed to stand at 37° C. for 30 minutes. Immediately after the addition of RIBOGREEN® reaction solution, the fluorescence values were read on a Varioskan LUX multifunctional microplate reader (purchased from Thermofisher) at 485 nm for absorption and 528 nm for emission to give the encapsulation efficiency values.

[3] = Particle size and PDI of lipid nanoparticles by dynamic light scattering; assay type: physicochemical; details: lipid nanoparticles with luciferase mRNA; ionizable lipid/cholesterol/DSPC/DMG-PEG2000 50/38.5/10/1.5 mol%
Procedure: as §1, §2

Row | Compound | Encapsulation efficiency (%) [2] [%] | Particle size (nm) [3] [nm] | Particle-size distribution (PDI) [3] | Total photon count in vivo at 6 hours after administration (Total Flux) [1]
1 | CCCCCCCCCOC(=O)C(C)(C)CCCCCCN(CCO)CCCCCCOC(=O)OCC(CCCCCCC)CCCCCCC [40a] | 95.08 | 120.90 | 0.18 | 2.03E+11
2 | CCCCCCCCCC(=O)OCC1(CCCCCN(CCO)CCCCCCCC(=O)OCCC(CCCCCC)CCCCCC)CC1 [23b] | 93.14 | 115.70 | 0.031 | 3.92E+10
3 | CCCCCCCCCOC(=O)CCCCCCCN(CCO)CCCCCCC1(C(=O)OC(CCCCCCCC)CCCCCCCC)CC1 [6a] | 87.22 | 90.67 | 0.018 | 2.88E+10
4 | CCCCCCCCOC(=O)OCC(C)(C)CCCCCN(CCCCCCOC(=O)CC(CCCCCCCC)CCCCCCCC)C(=O)SCCCCN(C)C [50b] | 98.50 | 98.36 | 0.13 | 1.01E+10
5 | CCCCCCCCCCCOC(=O)OCCCCCN(CCO)CCCCCC(C)(C)COC(=O)CC(CCCCCCC)CCCCCCC [28b] | 96.19 | 94.55 | 0.16 | 4.18E+10
6 | CCCCCCCCCC(=O)OCC1(CCCCCN(CCCCO)CCCCCCCC(=O)OC(CCCCCCCC)CCCCCCCC)CC1 [15b] | 69.69 | 120.27 | 0.015 | 8.22E+10
7 | CCCCCC#CCCOC(=O)CCCCCCCN(CCO)CCCCCCC(C)(C)C(=O)OC(CCCCCCCC)CCCCCCCC [55a] | 73.85 | 126.17 | 0.16 | 1.96E+10
8 | CCCCCCCCCC(=O)OCC(C)(C)CCCCCN(CCO)CCCCCCOC(=O)OCC(CCCCCCCC)CCCCCCCC [33b] | 94.85 | 85.80 | 0.15 | 8.23E+10
9 | CCCCCCC#CCOC(=O)CCCCCCCN(CCO)CCCCCCC(C)(C)C(=O)OC(CCCCCCCC)CCCCCCCC [54a] | 91.34 | 87.37 | 0.14 | 1.32E+10
10 | CCCCCCCCCCCCOC(=O)CCCCCN(CCO)CCCCCCC(C)(C)C(=O)OC(CCCCCCCCC)CCCCCCCCC [24a] | 88.89 | 109.53 | 0.052 | 3.07E+10
11 | CCCCCCCCCCOC(=O)CCCCCCCN(CCO)CCCCCC(C)(C)COC(=O)CCC(CCCCCC)CCCCCC [20b] | 87.69 | 107.83 | 0.032 | 4.82E+10
12 | CCCCCCCCCC(=O)OCCCCCCCN(CCO)CCCCC(C)(C)COC(=O)OCC(CCCCCCC)CCCCCCC [25b] | 95.59 | 94.39 | 0.15 | 1.11E+11
13 | CCCCCCCCCOC(=O)CCCCCCCN(CCO)CCCCCCC(C)(C)C(=O)OCCC(CCCCCC)CCCCCC [7a] |  |  |  | 5.26E+10

Continued, in another order:

Row | Encapsulation efficiency (%) [2] [%] | Particle size (nm) [3] [nm] | Particle-size distribution (PDI) [3] | Compound | Total photon count in vivo at 6 hours after administration (Total Flux) [1]
14 | 94.38 | 89.73 | 0.16 | CCCCCCCCC(=O)OCCC(C)(C)CCCCCN(CCO)CCCCCCC(=O)OCC(CCCCCCCC)CCCCCCCC [105b] | 9.24E+10
15 | 95.99 | 91.60 | 0.19 | CCCCCCCCCC(=O)OCCCC(C)(C)CCCN(CCO)CCCCCCC(=O)OCCCC(CCCCCC)CCCCCC [75b] | 7.05E+10
16 | 97.45 | 92.63 | 0.15 | CCCCCCCCCC(=O)OCC1(CCCCCN(CCCCCCCC(=O)OCC(CCCCCCC)CCCCCCC)C(=O)SCCCCN(C)C)CC1 [44b] | 1.16E+10
17 | 93.55 | 125.60 | 0.11 | CCCCCCCCCC(=O)OCCCC(C)(C)CCCN(CCCCO)CCCCCCC(=O)OCCCC(CCCCCC)CCCCCC [94b] | 2.23E+10
18 | 93.23 | 104.47 | 0.21 | CCCCCCCCCOC(=O)CCCCC(C)(C)CCN(CCO)CCCCCCOC(=O)OCC(CCCCCCC)CCCCCCC [47a] | 3.10E+10
19 | 97.18 | 81.83 | 0.17 | CCCCCCCCCC(CCCCCCCCC)OC(=O)CCCCCCCN(CCO)CCCCCC(C)(C)COC(=O)CCCC(CCCCCC)CCCCCC [66b] | 4.35E+10
20 | 88.21 | 147.03 | 0.09 | CCCCCCCCCC(=O)OCCCC(C)(C)CCCN(CCCCO)CCCCCCCCC(=O)OCC(CCCCCC)CCCCCC [113b] | 2.09E+10
21 | 96.72 | 86.99 | 0.15 | CCCCCCCCCCCOC(=O)CCCCC(C)(C)CCN(CCO)CCCCCCCC(=O)OC(CCCCCCCCCC)CCCCCCCCCC [64a] | 9.82E+10
22 | 96.84 | 92.67 | 0.20 | CCCCCCCCCOC(=O)OCCCCCCN(CCO)CCCCC(C)(C)CCC(=O)OCC(CCCCCCC)CCCCCCC [44a] | 1.06E+11
23 | 94.74 | 92.26 | 0.13 | CCCCCCCCCCCC(=O)OCC(C)(C)CCCCCN(CCCO)CCCCCCC(=O)OCC(CCCCCCCCCC)CCCCCCCCCC [86b] | 1.01E+11
24 | 92.47 | 99.90 | 0.15 | CCCCCCCCCC(=O)OCCCC(C)(C)CCCN(CCCO)CCCCCCC(=O)OCCC(CCCCCCC)CCCCCCC [92b] | 3.74E+10
25 | 97.75 | 80.60 | 0.16 | CCCCCCCC(CCCCCCC)COC(=O)CCCCCCCN(CCO)CCCCCC(C)(C)COC(=O)CC(CCCCCCC)CCCCCCC [65b] | 1.25E+11
26 | 91.14 | 101.50 | 0.12 | CCCCCCCCCCC(=O)OCCC(C)(C)CCCCN(CCCO)CCCCCCCC(=O)OCC(CCCCCCCC)CCCCCCCC [100b] | 8.51E+10
27 | 92.88 | 105.77 | 0.11 | CCCCCCCCCCOC(=O)CCCCC(C)(C)CCN(CCCO)CCCCCCCC(=O)OC(CCCCCCCCC)CCCCCCCCC [66a] | 9.31E+10
